Structures are written as SMILES.

Test [1] has as its target T1, human V1a receptor (Homo sapiens, UniProt P37288).
T1 construct: expressed in transfected cells; host or cells: CHO K1 (ATCC), also stably transfected with a modified aequorin
Description: Cellular in vitro assay for determining vasopressin receptor activity, V1a receptor cell line (CHO, aequorin luminescence). Format: cell-based. The note with it: for IC50: CHO cell line transfected with human V1a receptor, [Arg]-vasopressin at EC50 concentration, read-out: IC50 hV1a; for ratio IC50 hV2/hV1a: selectivity ratio IC50 hV2 / IC50 hV1a. A digest of the protocol: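 Luminescence from reconstituted aequorin, reporting intracellular calcium release, was measured immediately after adding [Arg]-vasopressin at EC50 concentration to CHO K1 cells pretreated 10 minutes with graded compound concentrations. Inhibition gave IC50 values.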

The target of test [2] is T2, human V2 receptor (Homo sapiens, UniProt P30518).
T2 construct: expressed in transfected cells; host or cells: CHO K1 (ATCC) expressing firefly luciferase under a CRE-responsive promoter
T2 sequence (P30518 whole entry): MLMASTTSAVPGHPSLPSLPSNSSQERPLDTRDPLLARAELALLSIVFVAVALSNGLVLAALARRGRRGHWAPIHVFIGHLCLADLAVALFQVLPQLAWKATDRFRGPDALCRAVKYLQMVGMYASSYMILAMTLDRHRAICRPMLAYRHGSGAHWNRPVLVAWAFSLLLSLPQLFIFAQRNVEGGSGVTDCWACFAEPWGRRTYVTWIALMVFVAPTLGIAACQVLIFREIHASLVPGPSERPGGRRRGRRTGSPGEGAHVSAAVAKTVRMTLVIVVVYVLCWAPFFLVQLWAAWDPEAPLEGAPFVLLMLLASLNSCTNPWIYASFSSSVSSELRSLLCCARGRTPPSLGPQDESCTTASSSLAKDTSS
Description: Cellular in vitro assay for determining vasopressin receptor activity, V2 receptor cell line (CHO, CRE-luciferase). The note with it: CHO cell line transfected with human V2 receptor; [Arg8]-vasopressin at EC50 concentration; read-out: IC50 hV2. In kind it is cell-based.

T1 sequence (P37288 whole entry): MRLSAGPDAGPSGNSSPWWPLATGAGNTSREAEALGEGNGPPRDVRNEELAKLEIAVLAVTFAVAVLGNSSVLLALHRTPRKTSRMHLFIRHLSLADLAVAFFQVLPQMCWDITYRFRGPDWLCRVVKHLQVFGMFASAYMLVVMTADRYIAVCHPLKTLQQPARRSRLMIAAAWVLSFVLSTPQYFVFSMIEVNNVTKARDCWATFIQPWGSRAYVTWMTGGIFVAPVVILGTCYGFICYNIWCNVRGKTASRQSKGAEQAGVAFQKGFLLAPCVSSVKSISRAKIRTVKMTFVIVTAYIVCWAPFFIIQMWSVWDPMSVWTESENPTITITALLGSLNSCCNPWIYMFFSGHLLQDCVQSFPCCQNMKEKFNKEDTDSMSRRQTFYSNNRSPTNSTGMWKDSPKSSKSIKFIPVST

As a reminder, the IC50 is the midpoint of a concentration-inhibition curve. For `O=C1CN(c2nc(Cn3nc(-c4ccc(Cl)cc4)n(C[C@H](O)C(F)(F)F)c3=O)nn2-c2cccnc2C(=O)NCC(F)(F)F)CCN1` [Example 509, 3-[3-({3-(4-Chlorophenyl)-5-oxo-4-[(2S)-3,3,3-trifluoro-2-hydroxypropyl]-4,5-dihydro-1H-1,2,4-triazol-1-yl}methyl)-5-(3-oxopiperazin-1-yl)-1H-1,2,4-triazol-1-yl]-N-(2,2,2-trifluoroethyl)pyridine-2-carboxamide], in test [1], the IC50 came to 2650 nM and the “ratio IC50 hV2/hV1a” value was 12.1. In test [2], the IC50 turned out to be 32000 nM.
For the compound `O=C1CN(C(=O)c2nc(Cn3nc(-c4ccc(Cl)cc4)n(C[C@H](O)C(F)(F)F)c3=O)nn2-c2cnccc2C(=O)NCC(F)(F)F)CCN1` [Example 510, 3-{3-({3-(4-Chlorophenyl)-5-oxo-4-[(2S)-3,3,3-trifluoro-2-hydroxypropyl]-4,5-dihydro-1H-1,2,4-triazol-1-yl}methyl)-5-[(3-oxopiperazin-1-yl)carbonyl]-1H-1,2,4-triazol-1-yl}-N-(2,2,2-trifluoroethyl)pyridine-4-carboxamide], in test [1], the IC50 worked out at 9950 nM and the “ratio IC50 hV2/hV1a” value was found to be 0.9. In addition, in test [2], the IC50 came to 8900 nM.
As to `O=C1CN(C(=O)c2nc(Cn3nc(-c4ccc(Cl)cc4)n(C[C@H](O)C(F)(F)F)c3=O)nn2-c2cnccc2C(=O)NCCC(F)(F)F)CCN1` [Example 511, 3-{3-({3-(4-Chlorophenyl)-5-oxo-4-[(2S)-3,3,3-trifluoro-2-hydroxypropyl]-4,5-dihydro-1H-1,2,4-triazol-1-yl}methyl)-5-[(3-oxopiperazin-1-yl)carbonyl]-1H-1,2,4-triazol-1-yl}-N-(3,3,3-trifluoropropyl)pyridine-4-carboxamide], in test [1], the IC50 worked out at 1650 nM and the “ratio IC50 hV2/hV1a” value is reported as 0.9. For the same compound, in test [2], the 50% inhibitory concentration (IC50) came to 1450 nM.
Regarding `O=C1CN(C(=O)c2nc(Cn3nc(-c4ccc(Cl)cc4)n(C[C@H](O)C(F)(F)F)c3=O)nn2-c2ncccc2C(=O)NCCC(F)(F)F)CCN1` [Example 512, 2-{3-({3-(4-Chlorophenyl)-5-oxo-4-[(2S)-3,3,3-trifluoro-2-hydroxypropyl]-4,5-dihydro-1H-1,2,4-triazol-1-yl}methyl)-5-[(3-oxopiperazin-1-yl)carbonyl]-1H-1,2,4-triazol-1-yl}-N-(3,3,3-trifluoropropyl)pyridine-3-carboxamide], in test [1], the IC50 turned out to be 3600 nM and the “ratio IC50 hV2/hV1a” value was 0.3. Also, the IC50 in test [2] worked out at 1250 nM.
For `O=C1CN(C(=O)c2nc(Cn3nc(-c4ccc(Cl)cc4)n(C[C@H](O)C(F)(F)F)c3=O)nn2-c2ncccc2C(=O)NC2CC2)CCN1` [Example 513, 2-{3-({3-(4-Chlorophenyl)-5-oxo-4-[(2S)-3,3,3-trifluoro-2-hydroxypropyl]-4,5-dihydro-1H-1,2,4-triazol-1-yl}methyl)-5-[(3-oxopiperazin-1-yl)carbonyl]-1H-1,2,4-triazol-1-yl}-N-cyclopropylpyridine-3-carboxamide] the same measures were 2400 nM, 2.3 and 5450 nM.
As for `O=C1CN(C(=O)c2nc(Cn3nc(-c4ccc(Cl)cc4)n(C[C@H](O)C(F)(F)F)c3=O)nn2-c2cnccc2C(=O)NC2CC2)CCN1` [Example 514, 3-{3-({3-(4-Chlorophenyl)-5-oxo-4-[(2S)-3,3,3-trifluoro-2-hydroxypropyl]-4,5-dihydro-1H-1,2,4-triazol-1-yl}methyl)-5-[(3-oxopiperazin-1-yl)carbonyl]-1H-1,2,4-triazol-1-yl}-N-cyclopropylpyridine-4-carboxamide], in test [1], the IC50 was found to be 340 nM and the “ratio IC50 hV2/hV1a” value came out at 3.7. For the same compound, the IC50 in test [2] is 1250 nM.
Take `CC1(NC(=O)c2ccncc2-n2nc(Cn3nc(-c4ccc(Cl)cc4)n(C[C@H](O)C(F)(F)F)c3=O)nc2C(=O)N2CCNC(=O)C2)CC1` [Example 515, 3-{3-({3-(4-Chlorophenyl)-5-oxo-4-[(2S)-3,3,3-trifluoro-2-hydroxypropyl]-4,5-dihydro-1H-1,2,4-triazol-1-yl}methyl)-5-[(3-oxopiperazin-1-yl)carbonyl]-1H-1,2,4-triazol-1-yl}-N-(1-methylcyclopropyl)pyridine-4-carboxamide]: the IC50 in test [1] amounted to 2000 nM; in test [2], 2250 nM. The “ratio IC50 hV2/hV1a” value in test [1] is recorded as 1.1.
Regarding `O=C(NCC(F)(F)F)c1ccncc1-n1nc(Cn2nc(-c3ccc(Cl)cc3)n(C[C@H](O)C(F)(F)F)c2=O)nc1C(=O)N1CCS(=O)(=O)CC1` [Example 518, 3-{3-({3-(4-Chlorophenyl)-5-oxo-4-[(2S)-3,3,3-trifluoro-2-hydroxypropyl]-4,5-dihydro-1H-1,2,4-triazol-1-yl}methyl)-5-[(1,1-dioxidothiomorpholin-4-yl)carbonyl]-1H-1,2,4-triazol-1-yl}-N-(2,2,2-trifluoroethyl)pyridine-4-carboxamide], the IC50 came to 955 nM in test [1] and 480 nM in test [2]. Moreover, the “ratio IC50 hV2/hV1a” value in test [1] came to 0.5.
`O=C(NCCC(F)(F)F)c1ccncc1-n1nc(Cn2nc(-c3ccc(Cl)cc3)n(C[C@H](O)C(F)(F)F)c2=O)nc1C(=O)N1CCS(=O)(=O)CC1` [Example 519, 3-{3-({3-(4-Chlorophenyl)-5-oxo-4-[(2S)-3,3,3-trifluoro-2-hydroxypropyl]-4,5-dihydro-1H-1,2,4-triazol-1-yl}methyl)-5-[(1,1-dioxidothiomorpholin-4-yl)carbonyl]-1H-1,2,4-triazol-1-yl}-N-(3,3,3-trifluoropropyl)pyridine-4-carboxamide]: in test [1], the IC50 came to 1350 nM and the “ratio IC50 hV2/hV1a” value is reported as 0.7. The IC50 in test [2] came to 925 nM.
For the compound `O=C(NC1CC1)c1ccncc1-n1nc(Cn2nc(-c3ccc(Cl)cc3)n(C[C@H](O)C(F)(F)F)c2=O)nc1C(=O)N1CCS(=O)(=O)CC1` [Example 520, 3-{3-({3-(4-Chlorophenyl)-5-oxo-4-[(2S)-3,3,3-trifluoro-2-hydroxypropyl]-4,5-dihydro-1H-1,2,4-triazol-1-yl}methyl)-5-[(1,1-dioxidothiomorpholin-4-yl)carbonyl]-1H-1,2,4-triazol-1-yl}-N-cyclopropylpyridine-4-carboxamide], the IC50 came out at 295 nM in test [1] and 665 nM in test [2]. Also, the “ratio IC50 hV2/hV1a” value in test [1] turned out to be 2.3.
For `CC1(NC(=O)c2ccncc2-n2nc(Cn3nc(-c4ccc(Cl)cc4)n(C[C@H](O)C(F)(F)F)c3=O)nc2C(=O)N2CCS(=O)(=O)CC2)CC1` [Example 521, 3-{3-({3-(4-Chlorophenyl)-5-oxo-4-[(2S)-3,3,3-trifluoro-2-hydroxypropyl]-4,5-dihydro-1H-1,2,4-triazol-1-yl}methyl)-5-[(1,1-dioxidothiomorpholin-4-yl)carbonyl]-1H-1,2,4-triazol-1-yl}-N-(1-methylcyclopropyl)pyridine-4-carboxamide] the same measures were 6250 nM, 885 nM and 0.1.
Take `O=C1CN(C(=O)c2nc(Cn3nc(-c4ccc(Cl)cc4)n(C[C@H](O)C(F)(F)F)c3=O)nn2-c2ncccc2C(=O)NCC(F)(F)F)CCN1` [Example 524, 2-{3-({3-(4-Chlorophenyl)-5-oxo-4-[(2S)-3,3,3-trifluoro-2-hydroxypropyl]-4,5-dihydro-1H-1,2,4-triazol-1-yl}methyl)-5-[(3-oxopiperazin-1-yl)carbonyl]-1H-1,2,4-triazol-1-yl}-N-(2,2,2-trifluoroethyl)pyridine-3-carboxamide]: in test [1], the IC50 stood at 4650 nM and the “ratio IC50 hV2/hV1a” value stood at 0.7. Besides, the IC50 in test [2] is 3450 nM.

Values taken from patent publication US11173151B2, “Substituted triazole derivatives and uses thereof” (BAYER AKTIENGESELLSCHAFT, priority 2017, dated 2021).
